Reference: US10322118B2, “Compounds and methods for inhibiting Cif virulence factor” (priority 2012, dated 2019)
Where a name gives a salt, the structure may show the parent alone.

What follows are compounds tested against T1, Cif (Pseudomonas aeruginosa (strain UCBPP-PA14), UniProt A0A0H2ZD27) (assay: Primary high throughput screen with fluorogenic substrate CMNGC). Details: primary screen; test compounds at 10 μM, 1 μM Cif, 25 μM CMNGC, 60 minutes.
Assay type: biochemical
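For % Inhibition, Mean ± SD in this document: purified enzyme assay in 96-well plates, 200 µL volume, fluorescence recorded each minute across a 60 min reaction.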
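For % Inhibition, plate 1 in this document: purified enzyme assay in 96-well plates, 200 µL volume, fluorescence recorded each minute across a 60 min reaction.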
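For % Inhibition, plate 2 in this document: purified enzyme assay in 96-well plates, 200 µL volume, fluorescence recorded each minute across a 60 min reaction.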
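For % Inhibition, plate 3 in this document: purified enzyme assay in 96-well plates, 200 µL volume, fluorescence recorded each minute across a 60 min reaction.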
Protocol: All high throughput screening assays were performed using 96-well plates, a 200 μL reaction volume, and a fluorescent plate reader. […] The fluorescent signal was measured after allowing the enzyme reaction to proceed for 60 minutes.
A library of 1600 FDA-approved compounds was screened for Cif inhibitory activity.
The screen was performed with only a 10-fold stoichiometric excess of inhibitor over Cif enzyme.

T1 sequence (A0A0H2ZD27 25-319 limits assumed): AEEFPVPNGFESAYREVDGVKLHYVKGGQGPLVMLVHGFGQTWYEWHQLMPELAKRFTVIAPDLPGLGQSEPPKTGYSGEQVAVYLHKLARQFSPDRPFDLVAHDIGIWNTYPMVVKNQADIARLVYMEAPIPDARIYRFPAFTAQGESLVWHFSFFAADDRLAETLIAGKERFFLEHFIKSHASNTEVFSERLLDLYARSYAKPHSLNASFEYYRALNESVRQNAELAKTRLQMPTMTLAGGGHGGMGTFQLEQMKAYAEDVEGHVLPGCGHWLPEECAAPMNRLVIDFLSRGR

Compound | inhibition at 10 µM | % Inhibition
CCCCCCCCCCCCCCOS(=O)(=O)O [Sodium tetradecyl sulfate] | 78% | –
N#C[C@@H]1C[C@@H]2C[C@@H]2N1C(=O)[C@@H](N)C12CC3CC(CC(O)(C3)C1)C2 [Saxagliptin] | 35% | –
NC[C@H]1O[C@H](O[C@H]2[C@H](O)[C@@H](O[C@H]3O[C@H](CO)[C@@H](O)[C@H](N)[C@H]3O)[C@H](N)C[C@@H]2N)[C@H](N)C[C@@H]1O [Tobramycin] | 40% | –
C[C@]12CC[C@@H]3c4ccc(O)cc4CC[C@H]3[C@@H]1CC[C@@H]2O [Estradiol] | 39% | –
CC1=NN(c2ccccc2)C(=O)C1 [Edaravone] | 43% | –
CO[C@@]1(NC(=O)Cc2cccs2)C(=O)N2C(C(=O)O)=C(COC(N)=O)CS[C@@H]21 [Cefoxitin sodium] | 32% | –
Nc1ccc(S(=O)(=O)Nc2ncccn2)cc1 [Sulfadiazine] | 42% | –
Candicidin | – | 41%
Cc1nccnc1N1CCCCC1 [Modaline sulfate] | 34% | –
Nc1nc2c(ncn2CCC(CO)CO)c(=O)[nH]1 [Penciclovir] | 45% | –
CCCCCCCCCCCCCCCC[N+](C)(C)C.[Br-] [Cetrimonium bromide] | – | 44%

These compounds were tested against T1, Cif (assay: Secondary screen (sextuplicate) with fluorogenic substrate CMNGC). Details: read-out: % Inhibition, Mean ± SD.
Assay type: biochemical
Protocol: All high throughput screening assays were performed using 96-well plates, a 200 μL reaction volume, and a fluorescent plate reader. […] The fluorescent signal was measured after allowing the enzyme reaction to proceed for 60 minutes. The secondary screen was performed using the same conditions as the primary screen, except that fluorescent readings were taken every minute for the 60-minute reaction.
Subsequently, the filtered primary hits were retested to validate the observed inhibitory effect.

Compound | inhibition at 10 µM
CCCCCCCCCCCCCCOS(=O)(=O)O [Sodium tetradecyl sulfate] | 9 ± 4%
N#C[C@@H]1C[C@@H]2C[C@@H]2N1C(=O)[C@@H](N)C12CC3CC(CC(O)(C3)C1)C2 [Saxagliptin] | 5 ± 4%
NC[C@H]1O[C@H](O[C@H]2[C@H](O)[C@@H](O[C@H]3O[C@H](CO)[C@@H](O)[C@H](N)[C@H]3O)[C@H](N)C[C@@H]2N)[C@H](N)C[C@@H]1O [Tobramycin] | -8 ± 7%
C[C@]12CC[C@@H]3c4ccc(O)cc4CC[C@H]3[C@@H]1CC[C@@H]2O [Estradiol] | 4 ± 5%
CC1=NN(c2ccccc2)C(=O)C1 [Edaravone] | 16 ± 7%
CO[C@@]1(NC(=O)Cc2cccs2)C(=O)N2C(C(=O)O)=C(COC(N)=O)CS[C@@H]21 [Cefoxitin sodium] | 10 ± 8%
Nc1ccc(S(=O)(=O)Nc2ncccn2)cc1 [Sulfadiazine] | 23 ± 4%
Cc1nccnc1N1CCCCC1 [Modaline sulfate] | 12 ± 3%
Nc1nc2c(ncn2CCC(CO)CO)c(=O)[nH]1 [Penciclovir] | 0%

Same assay, conditions: read-out: % Inhibition, plate 1

Compound | inhibition at 10 µM
CCCCCCCCCCCCCCOS(=O)(=O)O [Sodium tetradecyl sulfate] | 9%
N#C[C@@H]1C[C@@H]2C[C@@H]2N1C(=O)[C@@H](N)C12CC3CC(CC(O)(C3)C1)C2 [Saxagliptin] | 5%
NC[C@H]1O[C@H](O[C@H]2[C@H](O)[C@@H](O[C@H]3O[C@H](CO)[C@@H](O)[C@H](N)[C@H]3O)[C@H](N)C[C@@H]2N)[C@H](N)C[C@@H]1O [Tobramycin] | -5%
C[C@]12CC[C@@H]3c4ccc(O)cc4CC[C@H]3[C@@H]1CC[C@@H]2O [Estradiol] | 4%
CC1=NN(c2ccccc2)C(=O)C1 [Edaravone] | 21%
CO[C@@]1(NC(=O)Cc2cccs2)C(=O)N2C(C(=O)O)=C(COC(N)=O)CS[C@@H]21 [Cefoxitin sodium] | -3%
Nc1ccc(S(=O)(=O)Nc2ncccn2)cc1 [Sulfadiazine] | 23%
Cc1nccnc1N1CCCCC1 [Modaline sulfate] | 10%
Nc1nc2c(ncn2CCC(CO)CO)c(=O)[nH]1 [Penciclovir] | -11%

Same assay, conditions: read-out: % Inhibition, plate 2

Compound | inhibition at 10 µM
CCCCCCCCCCCCCCOS(=O)(=O)O [Sodium tetradecyl sulfate] | 4%
N#C[C@@H]1C[C@@H]2C[C@@H]2N1C(=O)[C@@H](N)C12CC3CC(CC(O)(C3)C1)C2 [Saxagliptin] | 0%
NC[C@H]1O[C@H](O[C@H]2[C@H](O)[C@@H](O[C@H]3O[C@H](CO)[C@@H](O)[C@H](N)[C@H]3O)[C@H](N)C[C@@H]2N)[C@H](N)C[C@@H]1O [Tobramycin] | -7%
C[C@]12CC[C@@H]3c4ccc(O)cc4CC[C@H]3[C@@H]1CC[C@@H]2O [Estradiol] | 5%
CC1=NN(c2ccccc2)C(=O)C1 [Edaravone] | 13%
CO[C@@]1(NC(=O)Cc2cccs2)C(=O)N2C(C(=O)O)=C(COC(N)=O)CS[C@@H]21 [Cefoxitin sodium] | 16%
Nc1ccc(S(=O)(=O)Nc2ncccn2)cc1 [Sulfadiazine] | 24%
Cc1nccnc1N1CCCCC1 [Modaline sulfate] | 7%
Nc1nc2c(ncn2CCC(CO)CO)c(=O)[nH]1 [Penciclovir] | 1%

Same assay, conditions: read-out: % Inhibition, plate 3

Compound | inhibition at 10 µM
CCCCCCCCCCCCCCOS(=O)(=O)O [Sodium tetradecyl sulfate] | 12%
N#C[C@@H]1C[C@@H]2C[C@@H]2N1C(=O)[C@@H](N)C12CC3CC(CC(O)(C3)C1)C2 [Saxagliptin] | 6%
NC[C@H]1O[C@H](O[C@H]2[C@H](O)[C@@H](O[C@H]3O[C@H](CO)[C@@H](O)[C@H](N)[C@H]3O)[C@H](N)C[C@@H]2N)[C@H](N)C[C@@H]1O [Tobramycin] | -5%
C[C@]12CC[C@@H]3c4ccc(O)cc4CC[C@H]3[C@@H]1CC[C@@H]2O [Estradiol] | 5%
CC1=NN(c2ccccc2)C(=O)C1 [Edaravone] | 13%
CO[C@@]1(NC(=O)Cc2cccs2)C(=O)N2C(C(=O)O)=C(COC(N)=O)CS[C@@H]21 [Cefoxitin sodium] | 5%
Nc1ccc(S(=O)(=O)Nc2ncccn2)cc1 [Sulfadiazine] | 24%
Cc1nccnc1N1CCCCC1 [Modaline sulfate] | 12%
Nc1nc2c(ncn2CCC(CO)CO)c(=O)[nH]1 [Penciclovir] | 2%

Same assay, conditions: read-out: % Inhibition, plate 4

Compound | inhibition at 10 µM
CCCCCCCCCCCCCCOS(=O)(=O)O [Sodium tetradecyl sulfate] | 12%
N#C[C@@H]1C[C@@H]2C[C@@H]2N1C(=O)[C@@H](N)C12CC3CC(CC(O)(C3)C1)C2 [Saxagliptin] | 6%
NC[C@H]1O[C@H](O[C@H]2[C@H](O)[C@@H](O[C@H]3O[C@H](CO)[C@@H](O)[C@H](N)[C@H]3O)[C@H](N)C[C@@H]2N)[C@H](N)C[C@@H]1O [Tobramycin] | -12%
C[C@]12CC[C@@H]3c4ccc(O)cc4CC[C@H]3[C@@H]1CC[C@@H]2O [Estradiol] | 6%
CC1=NN(c2ccccc2)C(=O)C1 [Edaravone] | 26%
CO[C@@]1(NC(=O)Cc2cccs2)C(=O)N2C(C(=O)O)=C(COC(N)=O)CS[C@@H]21 [Cefoxitin sodium] | 9%
Nc1ccc(S(=O)(=O)Nc2ncccn2)cc1 [Sulfadiazine] | 26%
Cc1nccnc1N1CCCCC1 [Modaline sulfate] | 12%
Nc1nc2c(ncn2CCC(CO)CO)c(=O)[nH]1 [Penciclovir] | 3%

Same assay, conditions: read-out: % Inhibition, plate 5

Compound | inhibition at 10 µM
CCCCCCCCCCCCCCOS(=O)(=O)O [Sodium tetradecyl sulfate] | 13%
N#C[C@@H]1C[C@@H]2C[C@@H]2N1C(=O)[C@@H](N)C12CC3CC(CC(O)(C3)C1)C2 [Saxagliptin] | 11%
NC[C@H]1O[C@H](O[C@H]2[C@H](O)[C@@H](O[C@H]3O[C@H](CO)[C@@H](O)[C@H](N)[C@H]3O)[C@H](N)C[C@@H]2N)[C@H](N)C[C@@H]1O [Tobramycin] | 0%
C[C@]12CC[C@@H]3c4ccc(O)cc4CC[C@H]3[C@@H]1CC[C@@H]2O [Estradiol] | 8%
CC1=NN(c2ccccc2)C(=O)C1 [Edaravone] | 19%
CO[C@@]1(NC(=O)Cc2cccs2)C(=O)N2C(C(=O)O)=C(COC(N)=O)CS[C@@H]21 [Cefoxitin sodium] | 19%
Nc1ccc(S(=O)(=O)Nc2ncccn2)cc1 [Sulfadiazine] | 28%
Cc1nccnc1N1CCCCC1 [Modaline sulfate] | 13%
Nc1nc2c(ncn2CCC(CO)CO)c(=O)[nH]1 [Penciclovir] | 7%

Same assay, conditions: read-out: % Inhibition, plate 6

Compound | inhibition at 10 µM
CCCCCCCCCCCCCCOS(=O)(=O)O [Sodium tetradecyl sulfate] | 5%
N#C[C@@H]1C[C@@H]2C[C@@H]2N1C(=O)[C@@H](N)C12CC3CC(CC(O)(C3)C1)C2 [Saxagliptin] | 3%
NC[C@H]1O[C@H](O[C@H]2[C@H](O)[C@@H](O[C@H]3O[C@H](CO)[C@@H](O)[C@H](N)[C@H]3O)[C@H](N)C[C@@H]2N)[C@H](N)C[C@@H]1O [Tobramycin] | -21%
C[C@]12CC[C@@H]3c4ccc(O)cc4CC[C@H]3[C@@H]1CC[C@@H]2O [Estradiol] | -6%
CC1=NN(c2ccccc2)C(=O)C1 [Edaravone] | 6%
CO[C@@]1(NC(=O)Cc2cccs2)C(=O)N2C(C(=O)O)=C(COC(N)=O)CS[C@@H]21 [Cefoxitin sodium] | 14%
Nc1ccc(S(=O)(=O)Nc2ncccn2)cc1 [Sulfadiazine] | 15%
Cc1nccnc1N1CCCCC1 [Modaline sulfate] | 17%
Nc1nc2c(ncn2CCC(CO)CO)c(=O)[nH]1 [Penciclovir] | -3%

Same assay, conditions: secondary screen, 10 μM, mean of six plates

Compound | % Inhibition, Mean ± SD
Candicidin | 15 ± 7%
CCCCCCCCCCCCCCCC[N+](C)(C)C.[Br-] [Cetrimonium bromide] | 2 ± 4%

Same assay, conditions: secondary screen, 10 μM, plate number 1

Compound | % Inhibition, plate 1
Candicidin | 3%
CCCCCCCCCCCCCCCC[N+](C)(C)C.[Br-] [Cetrimonium bromide] | 1%

Same assay, conditions: secondary screen, 10 μM, plate number 2

Compound | % Inhibition, plate 2
Candicidin | 13%
CCCCCCCCCCCCCCCC[N+](C)(C)C.[Br-] [Cetrimonium bromide] | −1%

Same assay, conditions: secondary screen, 10 μM, plate number 3

Compound | % Inhibition, plate 3
Candicidin | 17%
CCCCCCCCCCCCCCCC[N+](C)(C)C.[Br-] [Cetrimonium bromide] | −4%

Same assay, conditions: secondary screen, 10 μM, plate number 4

Compound | % Inhibition, plate 4
Candicidin | 19%
CCCCCCCCCCCCCCCC[N+](C)(C)C.[Br-] [Cetrimonium bromide] | 3%

Same assay, conditions: secondary screen, 10 μM, plate number 5

Compound | % Inhibition, plate 5
Candicidin | 23%
CCCCCCCCCCCCCCCC[N+](C)(C)C.[Br-] [Cetrimonium bromide] | 8%

Same assay, conditions: secondary screen, 10 μM, plate number 6

Compound | % Inhibition, plate 6
Candicidin | 18%
CCCCCCCCCCCCCCCC[N+](C)(C)C.[Br-] [Cetrimonium bromide] | 2%
